Data on 25 compounds can be found in ChEMBL document CHEMBL5543059, “Discovery of anti-inflammatory natural flavonoids: Diverse scaffolds and promising leads for drug discovery” (Eur J Med Chem, 2023).

The structures appear in SMILES notation. Converted amounts (≈) assume the structure as drawn.

For test [1], the system named is Mus musculus. Nature of the test: Antiinflammatory activity against TPA-induced CD-1 mouse ear edema model assessed as reduction in ear edema at 1 uM relative to control. The test is classed as functional. Also on record: scale not given: the % may be the effect or the level left.
For test [2], the system named is RAW264.7. Put plainly: Antiinflammatory activity in mouse RAW264.7 cells assessed as suppression of LPS-induced iNOS expression preincubated with compound for 1 hrs followed by LPS-stimulation and measured after 24 hrs by Western blot analysis. It is filed as functional, cell-based.
For test [3], the system named is RAW264.7. Put plainly: Antiinflammatory activity in LPS-induced mouse RAW264.7 cells assessed as reduction in COX2 mRNA expression incubated for 24 hrs by qRT-PCR analysis. Conditions: RAW264.7, 24 h. It is filed as functional, cell-based.
In test [4] the test system is BV-2. Nature of the test: Anti-inflammatory activity in mouse BV-2 cells assessed as inhibition of LPS-induced NO production preincubated with compound for 1 hrs followed by LPS stimulation and measured after 24 hrs by Griess reagent based assay. It is filed as functional, cell-based.
The subject of test [5] is RAW264.7. Nature of the test: Anti-inflammatory activity in mouse RAW264.7 cells assessed as inhibition of LPS-induced nitric oxide production preincubated for 2 hrs followed by LPS stimulation and measured after 24 hrs by Griess assay. It is filed as functional, cell-based.
Test [6] has as its system RAW264.7. Put plainly: Antiinflammatory activity in mouse RAW264.7 cells assessed as decrease in LPS-induced IL-6 secretion after 24 hrs by ELISA method. It is filed as functional, cell-based. As to conditions: RAW264.7, 24 h.
Test [7] concerns RAW264.7. Nature of the test: Antiinflammatory activity in LPS-activated mouse RAW264.7 cells assessed as inhibition of ROS production at 10 uM relative to control. It is filed as functional. Also on record: scale not given: the % may be the effect or the level left.
In another test the test system is Peritoneal macrophage. Nature of the test: Antiinflammatory activity in mouse peritoneal macrophages assessed as fold reduction in LPS-induced TNFalpha level at 20 uM incubated for 4 hrs by ELISA method. It is filed as functional.
Test [8] has as its system BV-2. Put plainly: Anti-inflammatory activity in mouse BV-2 cells assessed as reduction in LPS-induced NO production pretreated for 1 hr followed by LPS-stimulation and measured after 18 hrs by 2,3-diaminonaphthalene reagent based fluorescence analysis. It is filed as functional, cell-based.
The test system of test [9] is BV-2. Nature of the test: Antiinflammatory activity against mouse BV-2 cells assessed as reduction in LPS induced NO production measured for 24 hrs by Griess reagent based analysis. As to conditions: BV-2, 24 h. It is filed as functional, cell-based.
Test [10] relates to Mus musculus. Nature of the test: Anti-inflammatory activity in mouse model of xylene-induced auricle edema assessed as inhibition of ear swelling at 50 mg/kg, IG pre-treated for 1 hr followed by xylene addition and measured after 1 hr relative to control. The test is classed as functional. Also on record: scale not given: the % may be the effect or the level left.
Test [11] deals with Mus musculus. Put plainly: Antiinflammatory activity against TPA-induced mouse ear edema model assessed as reduction in NO production measured after 4 hrs. The test is classed as functional, organism-based.
Test [12] has as its system RAW264.7. Put plainly: Antiinflammatory activity against mouse RAW264.7 cells assessed as reduction of LPS-induced NO production. It is filed as functional, cell-based.
Another test deals with HEK293. Nature of the test: Anti-inflammatory activity against TNFalpha-induced HEK293 cells assessed as inhibition of NF-kappaB activity pre-indubated for 1 hr followed by TNFalpha treatment measured for 5 hrs by luciferase based assay. It is filed as functional, cell-based. Conditions: Homo sapiens.
Test [13] has as its system Neutrophil. Put plainly: Inhibition of fMLF/CB-induced human Neutrophil activation assessed as reduction in elastase release. The test is classed as functional, cell-based.
Test [14] concerns Neutrophil. Put plainly: Inhibition of fMLF/CB-induced human Neutrophil activation assessed as reduction in superoxide anion. The test is classed as functional, cell-based.
Test [15] concerns Mus musculus. Nature of the test: Antiinflammatory activity against TPA-induced CD-1 mouse ear edema model assessed as reduction in ear edema at 0.25 mg/kg relative to control. It is filed as functional. Also on record: scale not given: the % may be the effect or the level left.
The subject of test [16] is RAW264.7. Put plainly: Anti-inflammatory activity in mouse RAW264.7 cells assessed as inhibition of LPS-induced nitric oxide production measured after 18 hrs by Griess assay. It is filed as functional, cell-based. Conditions: RAW264.7, 18 h.
Test [17] relates to J774.A1. Nature of the test: Anti-inflammatory activity in mouse J774.A1 macrophage cells assessed as reduction in LPS-induced TNF-alpha production. The test is classed as functional, cell-based.
Test [18] has as its system J774.A1. Put plainly: Antiinflammatory activity in LPS-induced mouse J774.A1 macrophage cells assessed as reduction in LPS-induced IL-1 beta level. The test is classed as functional, cell-based.
Test [19] in a line: Antioxidant activity assessed as DPPH radical scavenging activity measured for 30 mins. The test is classed as functional.
A short description of test [20]: Antioxidant activity assessed as ABTS radical scavenging activity incubated for 40 mins. The test is classed as functional.

With `O=C1c2c(O)cc(O)cc2O[C@H](c2ccccc2)[C@H]1O` [PINOBAKSIN], the Activity in the test on Mus musculus [1] was 12.28%.

For `CC1=C(O)C(=O)C=C2C1=CC=C1[C@@]2(C)CC[C@@]2(C)[C@@H]3C[C@](C)(C(=O)O)CC[C@]3(C)CC[C@]12C` [CELASTROL], the IC50 in the test on RAW264.7 [2] is 1 µM.

For `CC(C)=CCC/C(C)=C/Cc1cc(C2CC(=O)c3c(O)cc(O)cc3O2)ccc1O` (centres undefined), the half-inhibitory concentration (IC50) in the test on RAW264.7 [3] is 11.7 µM.

`COc1ccc(-c2oc3cc(O)cc(O)c3c(=O)c2OC)cc1O`: in the test with BV-2 [4], the concentration for half-maximal inhibition (IC50) stood at 11.1 µM.

In the case of `CC1(C)C=Cc2cc(-c3coc4cc(O)cc(O)c4c3=O)cc(O)c2O1`, the IC50 with RAW264.7 [5] is 20 µM.

For the compound `COc1ccc([C@@H]2CCc3cc(OC)c(O)cc3O2)cc1O`, the IC50 with RAW264.7 [6] was found to be 12.5 µM.

In the case of `O=C1c2c(O)cc(O)cc2O[C@H](c2ccc(O)c(O)c2)[C@H]1O` [(+)-TAXIFOLIN], the Activity with Mus musculus [1] is recorded as 12%.

As for `C=CC(C)(C)c1cc(/C=C/C(=O)c2ccc(O)cc2)c(OC)c(O)c1O`, in the test with RAW264.7 [7], the Activity came to 80%.

With `O=C(O)Cc1ccccc1Nc1c(Cl)cccc1Cl` [DICLOFENAC], the “fold change (FC)” value in the test with Peritoneal macrophage was found to be 1.8.

On to `COc1ccc2c(c1)O[C@H](c1ccc(O)cc1O)CC2`, for which, in the test with RAW264.7 [6], the 50% inhibitory concentration (IC50) was 21.8 µM.

Consider `COc1ccc(-c2cc3cc(O)c(O)cc3oc2=O)c(OC)c1OC`, for which the IC50 with BV-2 [8] is 28.3 µM.

Regarding `CNC(=N)NCCC[C@H](N)C(=O)O` [TILARGININE], the IC50 in the test on BV-2 [9] was found to be 14.8 µM.

Turning to `COc1ccc(-c2cc(=O)c3c(OC)c(OC)c(OC)cc3o2)cc1`, in the test with Mus musculus [10], the Activity amounted to 42.8%.

Turning to `C=C(C)[C@H](O)CC/C(C)=C/Cc1c(O)cc2oc(-c3ccc(O)cc3)cc(=O)c2c1O`, the concentration for half-maximal inhibition (IC50) in the test on Mus musculus [11] amounted to 3.5 µg/mL (≈ 8.28 µM).

As to `Oc1cc(O)c2c(c1)O[C@H](c1ccc(O)c(O)c1)[C@@H](O)C2` [CIANIDANOL], in the test with BV-2 [9], the concentration for half-maximal inhibition (IC50) was 26.1 µM.

Regarding `CC(C)=CCc1cc([C@@H]2CCc3ccc(O)cc3O2)ccc1O`, in the test with RAW264.7 [12], the 50% inhibitory concentration (IC50) amounted to 28.4 µM.

With `COc1c(O)cc(O)c2c(=O)cc(-c3ccccc3)oc12` [WOGONIN], the IC50 in the test on HEK293 was 28.1 µM.

With `O=C1C[C@@H](c2ccc(O)cc2)Oc2cc(O)cc(O)c21` [NARINGENIN], the values for the IC50 in the test on Neutrophil [13] and with Neutrophil [14] were 5.3 µM and 3.3 µM, respectively. Besides, the Activity in the test with Mus musculus [15] came out at 42%.

As to `COc1cc(-c2cc(=O)c3c(O)cc(O)cc3o2)ccc1O` [CHRYSOERIOL], the IC50 in the test with RAW264.7 [2] was 3.1 µM.

With `CC(C)=CCc1c(O)ccc(-c2coc3c(CC=C(C)C)c(O)cc(O)c3c2=O)c1O`, the IC50 in the test with RAW264.7 [5] was found to be 0.25 µM.

`Cc1c(O)c(C)c2c(c1O)C(=O)C[C@@H](c1ccc(O)c(O)c1)O2`: the IC50 in the test on RAW264.7 [16] worked out at 20 µM.

On to `O=C1CC(c2ccc(O)cc2O)Oc2cc(O)cc(O)c21` (centres undefined) [STEPPOGENIN], for which the IC50 with RAW264.7 [16] turned out to be 6.1 µg/mL.

With `COc1cc2oc(-c3ccccc3)cc(=O)c2c(O)c1O`, the IC50 with J774.A1 [17] is 0.22 µM; in the test on J774.A1 [18], 6.4 µM.

`Oc1cc(O)c2c(c1)O[C@H](c1cc(O)c(O)c(O)c1)[C@@H](O)C2` [GALLOCATECHIN]: in the test with BV-2 [9], the IC50 turned out to be 30.3 µM.

As for `O=C1O[C@H]([C@@H](O)CO)C(O)=C1O` [ASCORBIC ACID], the results for the half-inhibitory concentration (IC50) in test [19] and in test [20] were 2.1 µM and 3.3 µM, respectively.
